Data published in patent US8802664B2 (Bioproject, priority 2010, dated 2014).
Where a name gives a salt, the structure may show the parent alone.

melting point | SMILES
50 °C | CN1CCC(NC(c2cccc(SCc3ccccc3)c2)c2nc3ccccc3s2)CC1 (stereo not shown) (as salt: oxalate) [Example 107, [benzothiazol-2-yl(3-benzylsulfanylphenyl)methyl](1-methylpiperidin-4-yl)amine]
81 °C | CN1CCC(OC(c2cccc(OC3CNC3)c2)c2nc3ccccc3s2)CC1 (stereo not shown) (as salt: oxalate) [Example 402, 2-[[3-(azetidin-3-yloxy)phenyl](1-methylpiperidin-4-yloxy)methyl]benzothiazole]
137 °C | CN1CCC(OC(c2cccc(N3CCC(N)CC3)c2)c2nc3ccccc3s2)CC1 (stereo not shown) (as salt: oxalate) [Example 405, 1-{3-[benzothiazol-2-yl(1-methylpiperidin-4-yloxy)methyl]phenyl}piperidin-4-ylamine]
158 °C | CN1CCC(OC(c2nc3ccccc3s2)c2c(F)cc(Cl)cc2F)CC1 (stereo not shown) (as salt: oxalate) [Example 532]
132 °C | Cc1cccc(C(NC2CCN(C)CC2)c2nc3ccccc3[nH]2)c1 (stereo not shown) (as salt: oxalate) [Example 84, [(1H-benzimidazol-2-yl)(m-tolyl)methyl](1-methylpiperidin-4-yl)amine]
147 to 148 °C | CN1CCC(OC(c2ccc(Cl)cc2)c2nc3ccccc3s2)CC1 (stereo not shown) (as salt: oxalate) [Example 4, 2-[(4-chlorophenyl)(1-methylpiperidin-4-yloxy)methyl]benzothiazole]
115 °C | CCCCCCc1cccc(C(NC2CCN(C)CC2)c2nc3ccccc3[nH]2)c1 (stereo not shown) (as salt: oxalate) [Example 76, [(1H-benzimidazol-2-yl)(3-hexylphenyl)methyl](1-methylpiperidin-4-yl)amine]
50 °C | CN1CCC(OC(c2cccc(OC3CCNC3)c2)c2nc3ccccc3s2)CC1 (stereo not shown) (as salt: oxalate) [Example 382, 2-{(1-methylpiperidin-4-yloxy)[3-(pyrrolidin-3-yloxy)phenyl]methyl}benzothiazole]
130 °C | COc1ccc(-c2cccc(C(NC3CCN(C)CC3)c3nc4ccccc4s3)c2)cc1 (stereo not shown) (as salt: oxalate) [Example 211, [benzothiazol-2-yl(4′-methoxybiphenyl-3-yl)methyl](1-methylpiperidin-4-yl)amine]
96 °C | Cc1ccc(C(OC2CCN(C)CC2)c2nc3ccccc3[nH]2)c(Cl)c1 (stereo not shown) (as salt: oxalate) [Example 213, 2-[(2-chloro-4-methylphenyl)(1-methylpiperidin-4-yloxy)methyl]-1H-benzimidazole]
160 °C | CN1CCC(OC(c2ccc3ccsc3c2)c2nc3ccccc3[nH]2)CC1 (stereo not shown) (as salt: oxalate) [Example 556, 2-[benzo[b]thiophen-6-yl(1-methylpiperidin-4-yloxy)methyl]-1H-benzimidazole]
61 °C | CN1CCC(OC(c2cccc(C(F)(F)F)c2)c2nc3ccccc3s2)CC1 (stereo not shown) (as salt: hydrochloride) [Example 31, 2-[(1-methylpiperidin-4-yloxy)(3-trifluoromethylphenyl)methyl]benzothiazole]
90 °C | CCOC(=O)NCCCCC#Cc1cccc(C(OC2CCN(C)CC2)c2nc3ccccc3n2C)c1 (stereo not shown) (as salt: oxalate) [Example 549, ethyl (6-{3-[(1-methyl-1H-benzimidazol-2-yl)(1-methylpiperidin-4-yloxy)methyl]phenyl}hex-5-ynyl)carbamate]
85 °C | CN1CCC(OC(c2cccc(OCc3ccco3)c2)c2nc3ccccc3s2)CC1 (stereo not shown) (as salt: oxalate) [Example 267, 2-[[3-(furan-2-ylmethoxy)phenyl](1-methylpiperidin-4-yloxy)methyl]benzothiazole]
90 °C | CN1CCC(OC(c2cccc(CCCCCCNC(=N)N)c2)c2nc3ccccc3s2)CC1 (stereo not shown) (as salt: hydrochloride) [Example 363, N-(6-{3-[benzothiazol-2-yl(1-methylpiperidin-4-yloxy)methyl]phenyl}hexyl)guanidine]
158 °C | CN1CCC(OC(c2cccc(OCc3ccccn3)c2)c2nc3ccccc3s2)CC1 (stereo not shown) (as salt: oxalate) [Example 283, 2-{(1-methylpiperidin-4-yloxy)[3-(pyridin-2-ylmethoxy)phenyl]methyl}benzothiazole]
107 °C | CN1CCC(OC(c2nc3ccccc3[nH]2)c2cc(OC(F)(F)F)ccc2Cl)CC1 (stereo not shown) (as salt: oxalate) [Example 524]
103 °C | CN1CCC(OC(c2cccc(N3CCC(O)C3)c2)c2nc3ccccc3s2)CC1 (stereo not shown) (as salt: oxalate) [Example 406, 1-{3-[benzothiazol-2-yl(1-methylpiperidin-4-yloxy)methyl]phenyl}pyrrolidin-3-ol]

melting point | SMILES
123 °C | CCc1cccc(C(OC2CCN(C)CC2)c2nc3ccccc3s2)c1 (stereo not shown) (as salt: oxalate) [Example 152, 2-[(3-ethylphenyl)(1-methylpiperidin-4-yloxy)methyl]benzothiazole]
85 °C | CN1CCC(OC(c2cccc(SCCCF)c2)c2nc3ccccc3[nH]2)CC1 (stereo not shown) (as salt: oxalate) [Example 508]
63 °C | CN1CCC(OC(c2cccc(OCCCCO)c2)c2nc3ccccc3s2)CC1 (stereo not shown) (as salt: oxalate) [Example 266, 4-{3-[benzothiazol-2-yl(1-methylpiperidin-4-yloxy)methyl]phenoxy}butan-1-ol]
71 °C | CN1CCC(OC(c2ccc3c(c2)OCCO3)c2nc3ccccc3s2)CC1 (stereo not shown) (as salt: hydrochloride) [Example 10, 2-[(2,3-dihydrobenzo[1,4]dioxin-6-yl)(1-methylpiperidin-4-yloxy)methyl]benzothiazole]
170 °C | CN1CCC(OC(c2ccc3cc[nH]c3c2)c2nc3ccccc3[nH]2)CC1 (stereo not shown) (as salt: oxalate) [Example 550, 2-[(1H-indol-6-yl)(1-methylpiperidin-4-yloxy)methyl]-1H-benzimidazole]
103 °C | CN1CCC(OC(c2nc3ccccc3o2)c2cc(OC(F)(F)F)ccc2F)CC1 (stereo not shown) (as salt: oxalate) [Example 525, 2-[(2-fluoro-5-trifluoromethoxyphenyl)(1-methylpiperidin-4-yloxy)methyl]benzoxazole]
170 °C | Cc1cc(F)cc(C(OC2CCN(C)CC2)c2nc3ccccc3s2)c1 (stereo not shown) (as salt: oxalate) [Example 38, 2-[(3-fluoro-5-methylphenyl)(1-methylpiperidin-4-yloxy)methyl]benzothiazole]
139 °C | CN1CCC(OC(c2nc3ccccc3[nH]2)c2cc(C#CCCCN)ccc2F)CC1 (stereo not shown) (as salt: oxalate) [Example 442]
146 °C | CN1CCC(OC(c2cccc(SCCCCN)c2)c2nc3ccccc3[nH]2)CC1 (stereo not shown) (as salt: oxalate) [Example 326, 4-{3-[(1H-benzimidazol-2-yl)(1-methylpiperidin-4-yloxy)methyl]phenylsulfanyl}butylamine]
144 °C | CN1CCC(NC(c2cccc(Oc3ccccc3)c2)c2nc3ccccc3[nH]2)CC1 (stereo not shown) (as salt: oxalate) [Example 85, [(1H-benzimidazol-2-yl)(3-phenoxyphenyl)methyl](1-methylpiperidin-4-yl)amine]
103 °C | CN1CCC(OC(c2cccc(N3CCC(F)C3)c2)c2nc3ccccc3s2)CC1 (stereo not shown) (as salt: oxalate) [Example 454]
188 to 195 °C | CN1CCC(NC(c2cccc(I)c2)c2nc3ccccc3s2)CC1 (stereo not shown) (as salt: oxalate) [Example 48, [benzothiazol-2-yl(3-iodophenyl)methyl](1-methylpiperidin-4-yl)amine]
136 °C | CN1CCC(OC(c2cccc(OCCNCC(=O)OC(C)(C)C)c2)c2nc3ccccc3s2)CC1 (stereo not shown) (as salt: oxalate) [Example 370, (2-{3-[benzothiazol-2-yl(1-methylpiperidin-4-yloxy)methyl]phenoxy}ethylamino)acetic acid tert-butyl ester]
115 °C | CN1CCC(OC(c2cccc(CCCCCCN)c2)c2nc3ccccc3s2)CC1 (stereo not shown) (as salt: oxalate) [Example 325, 6-{3-[benzothiazol-2-yl(1-methylpiperidin-4-yloxy)methyl]phenyl}hexylamine]
104 °C | CCOC(=O)c1cccc(C(OC2CCN(C)CC2)c2nc3ccccc3s2)c1 (stereo not shown) (as salt: oxalate) [Example 206, 3-[benzothiazol-2-yl(1-methylpiperidin-4-yloxy)methyl]benzoic acid ethyl ester]
135 °C | CN1CCC(OC(c2cccc(C#CCCCCN)c2)c2nc3ccccc3s2)CC1 (stereo not shown) (as salt: oxalate) [Example 319, 6-{3-[benzothiazol-2-yl(1-methylpiperidin-4-yloxy)methyl]phenyl}hex-5-ynylamine]
79 °C | CN1CCC(OC(c2cccc(OCCCO)c2)c2nc3ccccc3s2)CC1 (stereo not shown) (as salt: oxalate) [Example 258, 3-{3-[benzothiazol-2-yl(1-methylpiperidin-4-yloxy)methyl]phenoxy}propan-1-ol]
91 °C | CN1CCC(OC(c2cccc(OC3CCC(N)C3)c2)c2nc3ccccc3s2)CC1 (stereo not shown) (as salt: oxalate) [Example 453]

SMILES | melting point
CCCCOc1cccc(C(OC2CCN(C)CC2)c2nc3ccccc3s2)c1 (stereo not shown) (as salt: oxalate) [Example 92, 2-[(3-butoxyphenyl)(1-methylpiperidin-4-yloxy)methyl]benzothiazole] | 135 °C
CN1CCC(OC(c2cccc(OCCCCN3CCOCC3)c2)c2nc3ccccc3[nH]2)CC1 (stereo not shown) (as salt: oxalate) [Example 332, 2-{(1-methylpiperidin-4-yloxy)[3-(4-morpholin-4-yl-butoxy)phenyl]methyl}-1H-benzimidazole] | 85 °C
CN1CCC(OC(c2cccc(OCCCC(F)(F)F)c2)c2nc3ccccc3s2)CC1 (stereo not shown) (as salt: oxalate) [Example 169, 2-{(1-methylpiperidin-4-yloxy)[3-(4,4,4-trifluoro-butoxy)phenyl]methyl}benzothiazole] | 115 °C
CCCCOc1cccc(C(NC2CCN(C)CC2)c2nc3ccccc3[nH]2)c1 (stereo not shown) (as salt: oxalate) [Example 69, [(1H-benzimidazol-2-yl)(3-butoxyphenyl)methyl](1-methylpiperidin-4-yl)amine] | 137 °C
